Experimental findings from ChEMBL document CHEMBL3232918, “Core modification of substituted piperidines as novel inhibitors of HDM2-p53 protein-protein interaction” (Bioorg Med Chem Lett, 2014) are described below.

One data set has as its system SJSA-1. In words: Antiproliferative activity against human SJSA1 cells.
The nature of data set [1]: Permeability of the compound in human Caco2 cells. Format: ADME, cell-based. The settings on record: Caco-2, read-out: permeability. On the technique in general: Caco-2 cells form a polarised layer with tight junctions and transporters.
A short description of data set [2]: AUC in mouse at 20 mg/kg, iv and 20 mg/kg, po. It counts as ADME, organism-based. The settings on record: plasma.
Data set [3] can be described thus: Oral bioavailability in mouse at 20 mg/kg. To be noted: in vivo. Format: ADME, organism-based.
The target of data set [4] is E3 ubiquitin-protein ligase Mdm2 (Homo sapiens, UniProt Q00987). In words: Binding affinity to HDM2 (unknown origin) by fluorescence polarization peptide displacement assay. For orientation: In fluorescence polarisation assays a small probe gives low polarisation when free and higher when bound to something large.
Chain of E3 ubiquitin-protein ligase Mdm2 (Q00987 whole entry): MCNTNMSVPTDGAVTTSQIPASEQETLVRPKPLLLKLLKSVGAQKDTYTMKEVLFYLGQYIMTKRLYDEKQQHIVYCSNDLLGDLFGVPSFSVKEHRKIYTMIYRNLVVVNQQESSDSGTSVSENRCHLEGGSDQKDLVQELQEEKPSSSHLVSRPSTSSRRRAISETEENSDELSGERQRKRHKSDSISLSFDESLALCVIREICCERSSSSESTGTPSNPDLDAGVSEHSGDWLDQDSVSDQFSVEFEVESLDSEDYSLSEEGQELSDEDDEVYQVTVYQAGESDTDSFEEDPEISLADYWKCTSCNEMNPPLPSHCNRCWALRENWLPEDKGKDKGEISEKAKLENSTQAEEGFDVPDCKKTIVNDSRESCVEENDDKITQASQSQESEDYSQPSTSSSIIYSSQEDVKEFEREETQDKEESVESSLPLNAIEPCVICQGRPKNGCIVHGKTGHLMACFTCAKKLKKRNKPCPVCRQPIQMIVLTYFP

A word on the IC50: it is the concentration that gives 50% inhibition. `C=CC[C@H]1N(C(=O)c2cnccc2C(F)(F)F)CCC[C@@]1(Oc1ccc(C(F)(F)F)cc1)C(=O)N1CCN(c2ccccc2OCCOC)CC1` came in with an IC50 in the data set with SJSA-1 of 1 µM.

What is called AUC is the area under the concentration-time curve, a measure of exposure. Higher therefore signals high exposure. As a reminder, the bioavailability is the share of a dose that reaches the circulation, judged against a reference dose that is usually intravenous. On to `COc1ccccc1N1CCN(C(=O)[C@]2(Oc3ccc(C(F)(F)F)cc3)CCCN(C(=O)c3cnccc3C(F)(F)F)C2)CC1`, for which, in data set [1], the Papp is 15.8 ×10⁻⁶ cm/s. Moreover, the IC50 with SJSA-1 was 5.5 µM. Besides, in data set [2], the AUC came out at 1.9 µM·h. In data set [3], this compound came in with a bioavailability of 19%.

With `COCCOc1ccccc1N1CCN(C(=O)[C@]2(Oc3ccc(C(F)(F)F)cc3)CCCN(C(=O)c3cnccc3C(F)(F)F)C2)CC1`, the Papp in data set [1] worked out at 20.3 ×10⁻⁶ cm/s. This compound had an IC50 in the data set on SJSA-1 of 4.7 µM. The compound also displayed an AUC in data set [2] of 1.1 µM·h. The compound further had a bioavailability in data set [3] of 32%.

On to `COCCOc1ccccc1N1CCN(C(=O)[C@]2(Oc3ccc(C(F)(F)F)cc3)CC[C@H](c3ccccc3)N(C(=O)c3cnccc3C(F)(F)F)C2)CC1`, for which the 50% inhibitory concentration (IC50) in data set [4] is greater than 10 µM.

For `COc1ccc(C2=N[C@@H](c3ccc(Cl)cc3)[C@@H](c3ccc(Cl)cc3)N2C(=O)N2CCNC(=O)C2)c(OC(C)C)c1` [NUTLIN-3], in data set [1], the Papp was determined as 12.6 ×10⁻⁶ cm/s. The compound also yielded an IC50 with SJSA-1 of 1.9 µM.
